Reference: patent publication US11053235B2, “Substituted 1,4-dihydropyrimidines for the treatment of HBV infection or HBV-induced diseases” (Janssen Sciences Ireland Unlimited Company, priority 2018, dated 2021)
Where two headings read alike, the source gives them in different places.

Columns and labels:
HBV = assay: Anti-viral assay in HepG2.2.15 cells: HBV inhibitory activity (HBV DNA in culture medium by q-PCR); type: cell-based; details: HepG2.2.15 cells, 6 days treatment, HBV DNA in culture medium by q-PCR, highest concentration 10 uM, read-out: EC50
Description: (§1) Example 2: Anti-Viral Assay in HepG2.2.15 Cells
(§2) 1.1. Cell Line • HepG2.2.15 (the HepG2.2.15 cell line can be produced by transfection of the HepG2 cell line as described in Sells, Chen, and Acs 1987 (Proc. Natl. Acad. Sci. USA 84:1005-1009), and the HepG2 cell line is available from ATCC® under number HB-8065™). Reagents • DMEM/F12 (INVITROGEN-11330032) • FBS (GIBCO-10099-141) • Dimethyl sulfoxide(DMSO) (SIGMA-D2650) • Penicillin-streptomycin solution (HYCLONE-SV30010) • NEAA (INVITROGEN-1114050) • L-Glutamine (INVITROGEN-25030081) • Geneticin Selective Antibiotic (G418, 500 mg/ml) (INVITROGEN-10131027) • Trypsinase digestion solution (INVITROGEN-25300062) • CCK8 (BIOLOTE-35004) • QIAamp 96 DNA Blood Kit (12) (QIAGEN-51162) • FastStart Universal Probe Mast Mix (ROCHE-04914058001)
(§3) 2.1. HBV Inhibitory Activity and Cytotoxicity Determination
(§4) Seed the cell HepG2.2.15 cells into 96-well plate in 2% FBS culture medium at the density of 40,000 cells/well and 5,000 cells/well for HBV inhibitory activity and cytotoxicity determination, respectively. After seeding, incubate the cell plates at 37° C., 5% CO2 overnight. The next day, medium containing compounds is added to the cell to treat the cells for 6 days with medium refreshed once in the middle of the treatment. 8 dose points with 3 folds dilution of each compound were adopted and the highest concentration of the compounds is 10 uM and 100 uM for HBV inhibitory activity and cytotoxicity determination, respectively.
The HBV DAN change in the cell culture medium induced by the compounds is measured by q-PCR method. Briefly, the HBV DNA in the culture medium is extracted using QIAamp 96 DNA Blood Kit according to the manual and then quantified by q-PCR using the primers and probe in the table below.
(§5) EC50 and CC50 values are calculated by the GRAPHPAD PRISM software.

[1] = Cytotoxicity determination in HepG2.2.15 cells (CCK-8); type: cell-based; details: human, 6 days treatment, CCK-8, highest concentration 100 uM
Description: as §1, §2, §3, §4
After 6 days of compounds treatment, add 20 μl CCK-8 reagents to each well of cytotoxicity assay plates, incubate the plate at 37° C., 5% CO2 for 2.5 h and measure the absorbance at 450 nm wavelength, at the same time read the absorbance at 630 nm wavelength as reference.
as §5

[2] = Hepatitis B virus, HepG2.2.15, 144 h

Row | Structure (SMILES) | EC50 (HBV; [2]) | CC50 at 6 days [1] | EC50 (HBV)
1 | CCOC(=O)C1=C([C@H]2CC[C@H](c3nc(CCC(=O)O)co3)CC2)NC(c2nccs2)=NC1c1ccc(F)c(F)c1Cl (relative stereo) [Compound I-24, (trans)-3-(2-(4-(6-(2-Chloro-3,4-difluorophenyl)-5-(ethoxycarbonyl)-2-(thiazol-2-yl)-3,6-dihydropyrimidin-4-yl)cyclohexyl)oxazol-4-yl)propanoic acid] | 0.012 µM | 7.55 µM | –
2 | COC(=O)C1=C([C@H]2CC[C@H](c3nc(C(=O)O)co3)CC2)NC(c2nccs2)=NC1c1ccc(F)c(F)c1Cl (single isomer, unassigned) [Compound I-1-C, (trans)-2-(4-(6-(2-Chloro-3,4-difluorophenyl)-5-(methoxycarbonyl)-2-(thiazol-2-yl)-3,6-dihydropyrimidin-4-yl)cyclohexyl)oxazole-4-carboxylic Acid] | 0.0075 µM | 13.6 µM | –
3 | CCOC(=O)C1=C([C@H]2CC[C@H](c3nc(C(=O)O)co3)CC2)NC(c2nccs2)=NC1c1ccc(F)c(F)c1Cl (single isomer, unassigned) [Compound I-2-D, (trans)-2-(4-(6-(2-Chloro-3,4-difluorophenyl)-5-(ethoxycarbonyl)-2-(thiazol-2-yl)-3,6-dihydropyrimidin-4-yl)cyclohexyl)oxazole-4-carboxylic Acid] | 0.006 µM | 9.37 µM | –
4 | COC(=O)C1=C([C@H]2CC[C@H](c3nc(C(=O)O)co3)CC2)NC(c2nccs2)=NC1c1cccc(F)c1C (single isomer, unassigned) [Compound I-3-D, trans-2-(4-(6-(3-Fluoro-2-methylphenyl)-5-(methoxycarbonyl)-2-(thiazol-2-yl)-3,6-dihydropyrimidin-4-yl)cyclohexyl)oxazole-4-carboxylic Acid] | 0.14 µM | 14.2 µM | –
5 | COC(=O)C1=C([C@H]2CC[C@H](c3nc(C(=O)O)co3)CC2)NC(c2nccs2)=NC1c1ccc(F)cc1Cl (single isomer, unassigned) [Compound I-4-B, (trans)-2-(4-(6-(2-Chloro-4-fluorophenyl)-5-(methoxycarbonyl)-2-(thiazol-2-yl)-3,6-dihydropyrimidin-4-yl)cyclohexyl)oxazole-4-carboxylic Acid] | 0.011 µM | 16.4 µM | –
6 | COC(=O)C1=C([C@H]2CC[C@H](c3nc(C(=O)O)co3)CC2)NC(c2nccs2)=NC1c1cccc(F)c1Cl (single isomer, unassigned) [Compound I-5-B, (trans)-2-(4-(6-(2-Chloro-3-fluorophenyl)-5-(methoxycarbonyl)-2-(thiazol-2-yl)-3,6-dihydropyrimidin-4-yl)cyclohexyl)oxazole-4-carboxylic Acid] | 0.06 µM | 19.3 µM | –
7 | COC(=O)C1=C([C@H]2CC[C@H](c3nc(C(=O)O)co3)CC2)NC(c2nccs2)=NC1c1ccc(F)cc1C (single isomer, unassigned) [Compound I-6-B, (trans)-2-(4-(6-(4-Fluoro-2-methylphenyl)-5-(methoxycarbonyl)-2-(thiazol-2-yl)-3,6-dihydropyrimidin-4-yl)cyclohexyl)oxazole-4-carboxylic Acid] | 0.072 µM | 17.4 µM | –
8 | COC(=O)C1=C([C@H]2CC[C@H](c3nc(C(=O)O)co3)CC2)NC(c2ncc(F)cc2F)=NC1c1ccc(F)c(F)c1Cl (single isomer, unassigned) [Compound I-7-B, (trans)-2-(4-(6-(2-chloro-3,4-difluorophenyl)-2-(3,5-difluoropyridin-2-yl)-5-(methoxycarbonyl)-3,6-dihydropyrimidin-4-yl)cyclohexyl)oxazole-4-carboxylic acid] | 0.024 µM | 14.3 µM | –
9 | COC(=O)C1=C(C23CC(c4nc(C(=O)O)co4)(C2)C3)NC(c2nccs2)=NC1c1ccc(F)c(F)c1Cl (single isomer, unassigned) [Compound I-8-B, 2-(3-(6-(2-Chloro-3,4-difluorophenyl)-5-(methoxycarbonyl)-2-(thiazol-2-yl)-3,6-dihydropyrimidin-4-yl)bicyclo[1.1.1]pentan-1-yl)oxazole-4-carboxylic Acid] | 0.051 µM | 26.6 µM | –
10 | CCOC(=O)C1=C([C@H]2CC[C@H](c3nc(C(=O)O)co3)CC2)NC(c2nccs2)=NC1c1cccc(F)c1Cl (single isomer, unassigned) [Compound I-9-B, (trans)-2-(4-(6-(2-chloro-3-fluorophenyl)-5-(ethoxycarbonyl)-2-(thiazol-2-yl)-3,6-dihydropyrimidin-4-yl)cyclohexyl)oxazole-4-carboxylic Acid] | 0.025 µM | 12.3 µM | –
11 | CCOC(=O)C1=C([C@H]2CC[C@H](c3nc(C(=O)O)co3)CC2)NC(c2nccs2)=NC1c1ccc(F)cc1Cl (single isomer, unassigned) [Compound I-10-C, (trans)-2-(4-(6-(2-Chloro-4-fluorophenyl)-5-(ethoxycarbonyl)-2-(thiazol-2-yl)-3,6-dihydropyrimidin-4-yl)cyclohexyl)oxazole-4-carboxylic Acid] | 0.022 µM | 7.64 µM | –
12 | CCOC(=O)C1=C([C@H]2CC[C@H](c3nc(C(=O)O)co3)CC2)NC(c2nccs2)=NC1c1cccc(F)c1C (single isomer, unassigned) [Compound I-11-B, (trans)-2-(4-(5-(Ethoxycarbonyl)-6-(3-fluoro-2-methylphenyl)-2-(thiazol-2-yl)-3,6-dihydropyrimidin-4-yl)cyclohexyl)oxazole-4-carboxylic Acid] | 0.037 µM | 12.1 µM | –
13 | CCOC(=O)C1=C([C@H]2CC[C@H](c3nc(C(=O)O)co3)CC2)NC(c2nccs2)=NC1c1ccc(F)cc1C (single isomer, unassigned) [Compound I-12-C, (trans)-2-(4-(5-(Ethoxycarbonyl)-6-(4-fluoro-2-methylphenyl)-2-(thiazol-2-yl)-3,6-dihydropyrimidin-4-yl)cyclohexyl)oxazole-4-carboxylic Acid] | 0.036 µM | 11.1 µM | –
14 | CCOC(=O)C1=C(C2CC=C(c3nc(C(=O)O)co3)CC2)NC(c2nccs2)=NC1c1ccc(F)c(F)c1Cl (single isomer, unassigned) [Compound I-13-C, 2-(4-(6-(2-chloro-3,4-difluorophenyl)-5-(ethoxycarbonyl)-2-(thiazol-2-yl)-3,6-dihydropyrimidin-4-yl)cyclohex-1-en-1-yl)oxazole-4-carboxylic Acid] | – | 5.61 µM | 0.0065 µM
15 | CCOC(=O)C1=C([C@H]2CC[C@H](c3nc(C(=O)O)c(C)o3)CC2)NC(c2nccs2)=NC1c1ccc(F)c(F)c1Cl (single isomer, unassigned) [Compound I-14-B, (trans)-2-(4-(6-(2-Chloro-3,4-difluorophenyl)-5-(ethoxycarbonyl)-2-(thiazol-2-yl)-3,6-dihydropyrimidin-4-yl)cyclohexyl)-5-methyloxazole-4-carboxylic Acid] | 0.0047 µM | 3.72 µM | –
16 | CCOC(=O)Cc1coc([C@H]2CC[C@H](C3=C(C(=O)OCC)C(c4ccc(F)c(F)c4Cl)N=C(c4nccs4)N3)CC2)n1 (single isomer, unassigned) [VII-23-Y, (trans)-Ethyl 4-(2-chloro-3,4-difluorophenyl)-(4-(4-(2-ethoxy-2-oxoethyl)oxazol-2-yl)cyclohexyl)-2-(thiazol-2-yl)-1,4-dihydropyrimidine-5-carboxylate] | 0.023 µM | – | –
